In one test the target is T1, CDK11 (Homo sapiens, UniProt Q9BWU1).
T1 construct: purchased Eurofins (KINOMEscan); host or cells: E. coli BL21-derived host (T7 phage) or HEK-293
The test can be described thus: KINOMEscan competition binding, CDK11. As to the method:
Selected compounds were screened for kinase inhibition using the KINOMEscan™ assay (Eurofins) which is based on a competition binding assay that quantitatively measures the ability of a compound to compete with an immobilized, active-site directed ligand. The assay was performed by combining three components: DNA-tagged kinase; immobilized ligand; and the test compound. The ability of the test compound to compete with the immobilized ligand was measured via quantitative PCR of the DNA tag.
Kinase-tagged T7 phage strains were prepared in an E. coli host derived from the BL21 strain. E. coli were grown to log-phase and infected with T7 phage and incubated with shaking at 32° C. until lysis. The lysates were centrifuged and filtered to remove cell debris. The remaining kinases were produced in HEK-293 cells and subsequently tagged with DNA for qPCR detection. Streptavidin-coated magnetic beads were treated with biotinylated small molecule ligands for 30 minutes at room temperature to generate affinity resins for kinase assays. […] Kds were determined using an 11-point 3-fold compound dilution series with three DMSO control points. […] The kinase concentration in the eluates was measured by qPCR. […]
Binding constants (Kds) were calculated with a standard dose-response curve using the Hill equation: Response=Background+[Signal−Background/1+(Kd^Hill Slope/Dose^Hill Slope)] […]

Another test concerns SH-SY-5Y. The test can be described thus: Cell viability assay, SH-SY-5Y. Conditions: Homo sapiens, SH-SY5Y; brain carcinoma cell line SH-SY-5Y. The class given is cell-based. How it is done:
Antitumor activity of the compounds and doxorubicin as a positive control was assessed by using the CellTiter-Blue Cell Viability Assay (Promega, #G8082) or CellTiter-Glow® Luminescent Cell Viability assay (Promega #G7572) according to the manufacturer's instructions. The compounds were tested at 5 or 6 concentrations in half-log increments (highest concentration 30 μM or 100 μM) in duplicate or triplicate well conditions.
Tumor cells were grown at 37° C. in a humidified atmosphere with 5% CO2 in RPMI 1640 or DMEM medium, supplemented with 10% (v/v) fetal calf serum and 50 μg/ml gentamicin for up to 20 passages, and were passaged once or twice weekly. Cells were harvested using TrypLE or PBS buffer containing 1 mM EDTA, and the percentage of viable cells was determined using a CASY Model TI cell counter (OMNI Life Science). Cells were harvested from exponential phase cultures, counted and plated in 96 well flat-bottom microtiter plates at a cell density depending on the cell line's growth rate (4,000-20,000 cells/well depending on the cell line's growth rate, up to 60,000 for hematological cancer cell lines) in RPMI 1640 or DMEM medium supplemented with 10% (v/v) fetal calf serum and 50 μg/ml gentamicin (140 μl/well). […] Viability of cells was quantified by the CellTiter-Blue® cell viability assay (Promega G8081) or CellTiter-Glow® Luminescent Cell Viability assay (Promega #G7572). […]

Structures are written as SMILES.

T1 sequence (Q9BWU1 whole entry): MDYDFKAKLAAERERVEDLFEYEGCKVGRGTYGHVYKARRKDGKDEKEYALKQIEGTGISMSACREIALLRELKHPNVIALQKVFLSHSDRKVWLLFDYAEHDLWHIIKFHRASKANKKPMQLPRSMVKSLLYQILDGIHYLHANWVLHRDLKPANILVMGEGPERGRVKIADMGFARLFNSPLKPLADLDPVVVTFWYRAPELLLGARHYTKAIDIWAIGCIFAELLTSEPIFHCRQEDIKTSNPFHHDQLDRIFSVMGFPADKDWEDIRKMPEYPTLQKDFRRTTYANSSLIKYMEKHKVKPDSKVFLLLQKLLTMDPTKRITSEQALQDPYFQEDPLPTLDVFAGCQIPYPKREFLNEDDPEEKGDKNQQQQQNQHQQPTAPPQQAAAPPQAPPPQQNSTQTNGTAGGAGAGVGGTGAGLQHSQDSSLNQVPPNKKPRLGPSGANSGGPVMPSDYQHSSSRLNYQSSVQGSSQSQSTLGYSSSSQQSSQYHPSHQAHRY

At CDK11, `COc1c(O)ccc2c(=O)c(O)c(-c3ccc(CCCC[P+](c4ccccc4)(c4ccccc4)c4ccccc4)cc3)oc12` [SND190, (4-(4-(3,7-Dihydroxy-8-methoxy-4-oxo-4H1-chromen-2-yl)phenyl)butyl)triphenylphosphonium bromide] came in with a dissociation constant (Kd) of 3.6 µM. In the test with SH-SY-5Y, this compound displayed a half-inhibitory concentration (IC50) of 2.6 µM.

(Values after patent US20240124503A1, “HETEROAROMATIC PHOSPHONIUM SALTS AND THEIR USE TREATING CANCER” (FLORATEK PHARMA S.A., priority 2021, published 2024).)
